# According to EPA's ToxValDB 9.5:
# Test system: Monkey
# Settings: oral
# [1] = chronic, duration: 26 weeks, M, Cynomolgus, Body Weight: 12% decrease by week 10
# [2] = chronic, duration: 26 weeks, M, Cynomolgus, Endocrine: Significant decrease in serum TT4 (27-35%) and FT4 (30-38%)
smiles,measurement,setting,value
O=C([O-])C(F)(F)C(F)(F)C(F)(F)C(F)(F)C(F)(F)C(F)(F)C(F)(F)F.[NH4+] [Ammonium perfluorooctanoate],LOAEL,[1],20 mg/kg-day
same,NOAEL,[1],10 mg/kg-day
same,LOAEL,[2],10 mg/kg-day
same,NOAEL,[2],3 mg/kg-day
same,LOAEL,"chronic, duration: 26 weeks, M, Cynomolgus, Hepatic: 36% increase in absolute liver weight at ?3 mg/kg/day / increased serum triglyceride levels at 30/20 mg/kg/day",3 mg/kg-day
same,NOAEL,"chronic, duration: 26 weeks, M, Cynomolgus, Immunotoxicological: No histological alterations + Neurological: No histological alterations + Reproductive: No histological alterations",20 mg/kg-day
same,LOAEL,"short-term, duration: 2 weeks, M/F, Rhesus, Death: Unspecified number out of four died on week 2",100 mg/kg-day
same,NOAEL,"subchronic, duration: 30 days, M, Cynomolgus, Endocrine: No alterations in serum levels of thyroid hormones and TSH and histopathology of adrenals + Reproductive: No alterations in serum…",20 mg/kg-day
same,NOAEL,"subchronic, duration: 90 days, M/F, Rhesus",30 mg/kg-day
same,LOAEL,"subchronic, duration: 90 days, M/F, Rhesus, Body Weight: 33% body weight loss by week 6 + Death: One male and two females died during weeks 7-12",30 mg/kg-day
same,NOAEL,"subchronic, duration: 90 days, M/F, Rhesus, Body Weight: 33% body weight loss by week 6 + Gastrointestinal: Emesis + Immunotoxicological: Atrophy of lymphoid follicles in spleen and …",10 mg/kg-day
same,LOAEL,"subchronic, duration: 90 days, M/F, Rhesus, Gastrointestinal: Emesis + Immunotoxicological: Atrophy of lymphoid follicles in spleen and lymph nodes + Neurological: Hypoactivity and …",30 mg/kg-day
same,NOAEL,"subchronic, duration: 90 days, M/F, Rhesus, Reproductive: No histological alterations in testes or ovaries",100 mg/kg-day
